According to ChEMBL document CHEMBL4421717, “Antagonists and agonists of bitter taste receptors and uses thereof” (2012):

Assays:
[1] = biological target: T1, Taste receptor type 2 member 46 (Homo sapiens, UniProt P59540); assay: Activity at recombinant human N-terminal rat ST3 receptor-fused TAS2R46 expressed in HEK293T cells co-expressing Galpha16gust44 assessed as activation of 3 uM strychnine-induced intracellular calcium level by FLIPR assay; assay type: functional, cell-based
T1 sequence (P59540 whole entry): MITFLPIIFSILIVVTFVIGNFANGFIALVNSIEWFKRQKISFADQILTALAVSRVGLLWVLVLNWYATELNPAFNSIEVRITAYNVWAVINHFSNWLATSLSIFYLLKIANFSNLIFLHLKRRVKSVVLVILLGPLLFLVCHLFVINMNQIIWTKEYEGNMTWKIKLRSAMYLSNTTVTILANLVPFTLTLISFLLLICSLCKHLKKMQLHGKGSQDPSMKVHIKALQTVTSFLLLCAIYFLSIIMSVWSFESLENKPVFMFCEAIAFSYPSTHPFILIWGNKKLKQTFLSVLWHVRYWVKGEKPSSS

[2] = biological target: T1, Taste receptor type 2 member 46; assay: Antagonist activity at recombinant human N-terminal rat ST3 receptor-fused TAS2R46 expressed in HEK293T cells co-expressing Galpha16gust44 assessed as inhibition of 3 uM strychnine-induced intracellular calcium level by FLIPR assay; assay type: functional, cell-based

EC50 [1] | IC50 [2] | SMILES
1.1 µM | – | CC(=O)O[C@H]1C/C=C(\C)CCC2[C@H](C)C(=O)O[C@@H]2/C=C/1C (some centres undefined)
– | 97.8 µM | C/C1=C\CC(=O)/C(C)=C/[C@H]2OC(=O)[C@@H](C)C2CC1 (some centres undefined)
8.6 µM | – | C=C1C(=O)O[C@@H]2/C=C(\C)CC/C=C(\C)CCC12 (some centres undefined)
8.3 µM | – | C/C1=C\[C@H]2OC(=O)[C@@H](C)C2CC/C(C)=C/CC1 (some centres undefined)
